Laboratory results taken from patent publication US12486278B2, “MASP-2 inhibitors and methods of use” (Omeros Corporation, priority 2019, dated 2025).
Counter-ions that a name gives are not always drawn.

molecular target: T1, MASP-2 (CCP1-CCP2-SP) (Homo sapiens, UniProt O00187); assay: Enzymatic Assay for MASP-2 (fluorogenic substrate); assay type: biochemical; conditions: fluorogenic substrate based on C2 cleavage site; room temperature, 20 min; 20 mM HEPES pH 7.4, 140 mM NaCl, 0.1% Tween 20
T1 construct: 15 μL of Enzyme MASP-2 (CCP1-CCP2-SP) in Assay Buffer
T1 sequence (O00187 445-686 limits assumed): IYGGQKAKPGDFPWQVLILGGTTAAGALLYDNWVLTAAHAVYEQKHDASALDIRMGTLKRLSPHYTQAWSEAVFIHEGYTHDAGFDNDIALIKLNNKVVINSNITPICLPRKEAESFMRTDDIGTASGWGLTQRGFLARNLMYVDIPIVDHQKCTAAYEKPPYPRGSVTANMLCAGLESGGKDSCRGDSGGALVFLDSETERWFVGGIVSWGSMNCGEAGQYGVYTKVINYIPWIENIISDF
T1 sequence (O00187 298-444 partner limits assumed): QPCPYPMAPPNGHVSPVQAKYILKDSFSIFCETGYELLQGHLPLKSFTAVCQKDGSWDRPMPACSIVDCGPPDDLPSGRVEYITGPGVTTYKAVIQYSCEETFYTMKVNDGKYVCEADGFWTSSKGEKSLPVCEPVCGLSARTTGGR
Method in brief: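 Fluorogenic substrate built on the C2 cleavage site, in 20 mM HEPES pH 7.4, 140 mM NaCl, 0.1% Tween 20, run at room temperature for 20 min before an acetic acid stop. Fluorescence normalised to DMSO-only and no-enzyme controls; IC50 taken as equivalent to Ki, with tight- or slow-binding inhibitors treated separately.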

Structure (SMILES)	Ki [nM]
C[C@H](NC(=O)[C@H]1C[C@H](Cc2ccccc2)CN1)C(=O)NCc1ccc2c(c1)CNC2 [Compound I-9, (2R,4S)-4-Benzyl-N—((S)-1-((Isoindolin-5-Ylmethyl)Amino)-1-Oxopropan-2-Yl)Pyrrolidine-2-Carboxamide Di-Trifluoroacetate]	< 500
C[C@H](NC(=O)[C@H]1C[C@@H](c2ccccc2)CCN1CCP(=O)(O)O)C(=O)NCc1cc2cnccc2[nH]1 [Compound I-39, (2-((2R,4S)-2-(((S)-1-(((1H-Pyrrolo[3,2-C]Pyridin-2-Yl)Methyl)Amino)-1-Oxopropan-2-Yl)Carbamoyl)-4-Phenylpiperidin-1-Yl)Ethyl)Phosphonic Acid Di-Trifluoroacetate]	< 500
C[C@H](NC(=O)[C@H]1C[C@H](Cc2cc(Br)c(Cl)s2)CN1)C(=O)NCc1cnc2c(c1)c(Cl)cn2C [Compound I-19, (2R,4R)-4-((4-Bromo-5-Chlorothiophen-2-Yl)Methyl)-N—((S)-1-(((3-Chloro-1-Methyl-1H-Pyrrolo[2,3-B]Pyridin-5-Yl)Methyl)Amino)-1-Oxopropan-2-Yl)Pyrrolidine-2-Carboxamide Trifluoroacetate]	< 500
Cc1nc(N)ccc1CNC(=O)[C@H](C)NC(=O)[C@H]1C[C@H](Cc2cccc(C(=O)NCCCCl)c2)CN1 [Compound I-49, (2R,4S)—N—((S)-1-(((6-Amino-2-Methylpyridin-3-Yl)Methyl)Amino)-1-Oxopropan-2-Yl)-4-(3-((3-Chloropropyl)Carbamoyl)Benzyl)Pyrrolidine-2-Carboxamide Di-Trifluoroacetate]	< 500
Cc1nc(N)ccc1CNC(=O)[C@H](C)NC(=O)[C@H]1C[C@H](Cc2cccc(C3CC3)c2)CN1 [Compound I-44, (2R,4S)—N—((S)-1-(((6-Amino-2-Methylpyridin-3-Yl)Methyl)Amino)-1-Oxopropan-2-Yl)-4-(3-Cyclopropylbenzyl)Pyrrolidine-2-Carboxamide Di-Trifluoroacetate]	< 500
Cc1nc(N)ccc1CNC(=O)[C@H](C)NC(=O)[C@H]1C[C@H](Cc2cc(Br)c(Br)s2)CN1 [Compound I-17, (2R,4R)—N—((S)-1-(((6-Amino-2-Methylpyridin-3-Yl)Methyl)Amino)-1-Oxopropan-2-Yl)-4-((4,5-Dibromothiophen-2-Yl)Methyl)Pyrrolidine-2-Carboxamide Di-Trifluoroacetate]	< 500
C[C@H](NC(=O)[C@H]1C[C@H](c2ccccc2)CN1)C(=O)NCc1[nH]c2ccncc2c1F [Compound I-7, (2R,4R)—N—((S)-1-(((3-Fluoro-1H-Pyrrolo[3,2-C]Pyridin-2-Yl)Methyl)Amino)-1-Oxopropan-2-Yl)-4-Phenylpyrrolidine-2-Carboxamide Di-Trifluoroacetate]	< 500
C[C@H](NC(=O)[C@H]1C[C@@H](c2ccccc2)CCN1CCNS(C)(=O)=O)C(=O)NCc1ccc(C(=N)N)cc1 [Compound I-43, (2R,4S)—N—((S)-1-((4-Carbamimidoylbenzyl)Amino)-1-Oxopropan-2-Yl)-1-(2-(Methylsulfonamido)Ethyl)-4-Phenylpiperidine-2-Carboxamide Di-Trifluoroacetate]	< 500
Cc1nc(N)ccc1CNC(=O)[C@H](C)NC(=O)[C@H]1C[C@H](Cc2ccc(F)c(Cl)c2)CN1CC(=O)O [Compound I-33, 2-((2R,4S)-2-(((S)-1-(((6-Amino-2-Methylpyridin-3-Yl)Methyl)Amino)-1-Oxopropan-2-Yl)Carbamoyl)-4-(3-Chloro-4-Fluorobenzyl)Pyrrolidin-1-Yl)Acetic Acid Di-Trifluoroacetate]	< 500
C[C@H](NC(=O)[C@H]1C[C@H](Cc2cccc(Cl)c2)CN1)C(=O)NCc1cc2cnccc2[nH]1 [Compound I-5, (2R,4S)—N—((S)-1-(((1H-Pyrrolo[3,2-c]pyridin-2-yl)methyl)amino)-1-oxopropan-2-yl)-4-(3-chlorobenzyl)pyrrolidine-2-carboxamide di-trifluoroacetate]	< 500
C[C@H](NC(=O)[C@H]1C[C@@H](c2ccccc2)CCN1CCC(=O)O)C(=O)NCc1cc(Cl)ccc1-n1cnnn1 [Compound I-29, 3-((2R,4S)-2-(((S)-1-((5-Chloro-2-(1H-Tetrazol-1-Yl)Benzyl)Amino)-1-Oxopropan-2-Yl)Carbamoyl)-4-Phenylpiperidin-1-Yl)Propanoic Acid Trifluoroacetate]	2500 to 10000

The next lines start with the values.

Ki [nM]	Structure (SMILES)
< 500	C[C@H](NC(=O)[C@H]1C[C@H](Cc2ccnc(N)c2)CN1)C(=O)NCc1ccc(C(=N)N)cc1 [Compound I-56, (2R,4S)-4-((2-Aminopyridin-4-Yl)Methyl)-N—((S)-1-((4-Carbamimidoylbenzyl)Amino)-1-Oxopropan-2-Yl)Pyrrolidine-2-Carboxamide Di-Trifluoroacetate]
< 500	Cc1nc(N)ccc1CNC(=O)[C@H](C)NC(=O)[C@H]1C[C@H](Cc2ccc3c(C)cccc3c2)CN1 [Compound I-85, (2R,4S)—N—((S)-1-(((6-Amino-2-Methylpyridin-3-Yl)Methyl)Amino)-1-Oxopropan-2-Yl)-4-((5-Methylnaphthalen-2-Yl)Methyl)Pyrrolidine-2-Carboxamide Dihydrochloride]
> 10000	C[C@H](NC(=O)[C@H]1C[C@H](Cc2ccccc2)CN1)C(=O)NCc1ccc2nccn2c1 [Compound I-59, (2R,4S)-4-Benzyl-N—((S)-1-((Imidazo[1,2-A]Pyridin-6-Ylmethyl)Amino)-1-Oxopropan-2-Yl Pyrrolidine-2-Carboxamide Trifluoroacetate]
< 500	C[C@H](NC(=O)[C@H]1C[C@@H](c2ccccc2)CCN1)C(=O)NCc1cc2cnccc2[nH]1 [Compound I-90, (2R,4S)—N—((S)-1-(((1H-Pyrrolo[3,2-C]Pyridin-2-Yl)Methyl)Amino)-1-Oxopropan-2-Yl)-4-Phenylpiperidine-2-Carboxamide Di-Trifluoroacetate]
< 500	COC(=O)c1cccc(C[C@@H]2CN[C@@H](C(=O)N[C@@H](C)C(=O)NCc3ccc(C(=N)N)cc3)C2)c1 [Compound I-54, Methyl 3-(((3S,5R)-5-(((S)-1-((4-Carbamimidoylbenzyl)Amino)-1-Oxopropan-2-Yl)Carbamoyl)Pyrrolidin-3-Yl)Methyl)Benzoate Di-Trifluoroacetate]
< 500	C[C@H](NC(=O)c1cc(Cc2ccc(-c3ccccc3)cc2)c[nH]1)C(=O)NCc1ccc(C(=N)N)cc1 [Compound I-100, (S)-4-([1,1′-Biphenyl]-4-ylmethyl)-N-(1-((4-carbamimidoylbenzyl)amino)-1-oxopropan-2-yl)-1H-pyrrole-2-carboxamide trifluoroacetate]
< 500	C[C@H](NC(=O)[C@H]1C[C@@H](c2ccc3ccccc3c2)CCN1)C(=O)NCc1ccc(C(=N)N)cc1 [Compound I-70, (2R,4S)—N—((S)-1-((4-Carbamimidoylbenzyl)Amino)-1-Oxopropan-2-Yl)-4-(Naphthalen-2-Yl)Piperidine-2-Carboxamide Di-Trifluoroacetate]
< 500	Cc1nc(N)ccc1CNC(=O)[C@H](C)NC(=O)[C@H]1C[C@H](Cc2ccn(C)c(=O)c2)CN1 [Compound I-53, (2R,4S)—N—((S)-1-(((6-Amino-2-Methylpyridin-3-Yl)Methyl)Amino)-1-Oxopropan-2-Yl)-4-((1-Methyl-2-Oxo-1,2-Dihydropyridin-4-Yl)Methyl)Pyrrolidine-2-Carboxamide Di-Trifluoroacetate]
< 500	Cc1nc(N)ccc1CNC(=O)[C@H](C)NC(=O)[C@H]1C[C@@H](c2cccc(-n3cccn3)c2)CCN1 [Compound I-78, (2R,4S)-4-(3-(1H-Pyrazol-1-Yl)Phenyl)-N—((S)-1-(((6-Amino-2-Methylpyridin-3-Yl)Methyl)Amino)-1-Oxopropan-2-Yl)Piperidine-2-Carboxamide Dihydrochloride]
< 500	C[C@H](NC(=O)[C@H]1C[C@H](Cc2ccccc2)CN1)C(=O)NCc1cc2c(s1)CNC2 [Compound I-99, (2R,4S)-4-Benzyl-N—((S)-1-(((5,6-Dihydro-4H-Thieno[2,3-C]Pyrrol-2-Yl)Methyl)Amino)-1-Oxopropan-2-Yl)Pyrrolidine-2-Carboxamide Di-Trifluoroacetate Salt]
< 500	C[C@H](NC(=O)[C@H]1C[C@@H](c2ccc(-c3cccnc3)cc2)CCN1)C(=O)NCc1cc(Cl)ccc1-n1cnnn1 [Compound I-101, (2R,4S)—N—((S)-1-((5-chloro-2-(1H-tetrazol-1-yl)benzyl)amino)-1-oxopropan-2-yl)-4-(4-(pyridin-3-yl)phenyl)piperidine-2-carboxamide trifluoroacetate]
< 500	Cc1nc(N)ccc1CNC(=O)[C@H](CO)NC(=O)[C@H]1C[C@H](Cc2ccccc2)CN1 [Compound I-57, (2R,4S)—N—((S)-1-(((6-Amino-2-Methylpyridin-3-Yl)Methyl)Amino)-3-Hydroxy-1-Oxopropan-2-Yl)-4-Benzylpyrrolidine-2-Carboxamide Dihydrochloride]
< 500	Cc1nc(N)ccc1CNC(=O)[C@@H]1CCN1C(=O)[C@H]1C[C@H](c2cccc(-c3ccccc3)c2)CN1 [Compound I-64, (S)-1-((2R,4R)-4-([1,1′-Biphenyl]-3-Yl)Pyrrolidine-2-Carbonyl)-N-((6-Amino-2-Methylpyridin-3-Yl)Methyl)Azetidine-2-Carboxamide Di-Trifluoroacetate]
< 500	CC(NC(=O)[C@H]1C[C@@H](c2ccccc2)CCN1CC(=O)O)C(=O)NCc1cc2cnccc2[nH]1 (stereo in doubt) [Compound I-104, 2-((2R,4S)-2-(((R)-1-(((1H-pyrrolo[3,2-c]pyridin-2-yl)methyl)amino)-1-oxopropan-2-yl)carbamoyl)-4-phenylpiperidin-1-yl)acetic acid di-trifluoroacetate]
< 500	C[C@H](NC(=O)[C@H]1C[C@H](Oc2ccccc2)CN1)C(=O)NCc1cc2cnccc2[nH]1 [Compound I-97, (2R,4S)—N—((S)-1-(((1H-Pyrrolo[3,2-c]pyridin-2-yl)methyl)amino)-1-oxopropan-2-yl)-4-phenoxypyrrolidine-2-carboxamide di-trifluoroacetate]
